Values joined by “and” are separate entries in the source; they are usually repeats but may differ in a detail not shown here. Equal values may be shown once.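 1) Cells in 96-well plates. 2) Compound, 48 h, 5 concentrations. 3) Linear interpolation between surrounding doses. 4) Unreached endpoint = highest concentration. GI50 marks 50% less growth.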 Active and inactive are the calls of the source. Cut-off read from the data, not from the text of the source: active = GI50 up to about 1.1 µM and inactive = higher.
Experiments:
Assay in all cases: growth of human tumour cells (NCI), 48 h
Malme-3M = tested on: Malme-3M
OVCAR-8 = tested on: OVCAR-8
CCRF-CEM = tested on: CCRF-CEM
UACC-62 = tested on: UACC-62
OVCAR-3 = tested on: OVCAR-3
SW-620 = tested on: SW-620
SK-OV-3 = tested on: SK-OV-3
HCT-116 = tested on: HCT-116
NCI-H460 = tested on: NCI-H460
OVCAR-4 = tested on: OVCAR-4
SF-295 = tested on: SF-295
DU-145 = tested on: DU-145
A498 = tested on: A498
IGROV-1 = tested on: IGROV-1
K562 = tested on: K562
MDA-MB-231 = tested on: MDA-MB-231
HOP-62 = tested on: HOP-62
KM12 = tested on: KM12
HL-60 = tested on: HL-60
SR = tested on: SR

| SMILES | GI50 (Malme-3M) | GI50 (OVCAR-8) | GI50 (CCRF-CEM) | GI50 (UACC-62) | GI50 (OVCAR-3) | GI50 (SW-620) | GI50 (SK-OV-3) | GI50 (HCT-116) | GI50 (NCI-H460) | GI50 (OVCAR-4) | GI50 (SF-295) | GI50 (DU-145) | GI50 (A498) | GI50 (IGROV-1) | GI50 (K562) | GI50 (MDA-MB-231) | GI50 (HOP-62) | GI50 (KM12) | GI50 (HL-60) | GI50 (SR) |
| --- | --- | --- | --- | --- | --- | --- | --- | --- | --- | --- | --- | --- | --- | --- | --- | --- | --- | --- | --- | --- |
| Nc1nc(Cl)c(N)c(NCC2(CO)CCC(OCc3ccccc3)C2)n1 (stereo unspecified) | 39.5 µM (inactive) | > 100 µM (inactive) | > 100 µM (inactive) | > 100 µM (inactive) | > 100 µM (inactive) | > 100 µM (inactive) | > 100 µM (inactive) | > 100 µM (inactive) | > 100 µM (inactive) | 43.4 µM (inactive) | 4.9 µM (inactive) | > 100 µM (inactive) | 0.982 µM (active) | > 100 µM (inactive) | 1.33 µM (inactive) | > 100 µM (inactive) | > 100 µM (inactive) | > 100 µM (inactive) |  |  |
| CC(C)C1=CC(=O)[C@@](C)(C2[C@H](O)C[C@@]3(C)[C@@H]4CC=C5[C@@H](CC[C@@H](OC6OCC(O)C(O)C6OC6OC(C)C(O)C(O)C6O)C5(C)C)[C@]4(C)C(=O)C[C@]23C)O1 (stereo partly specified) | > 100 µM (inactive) | > 100 µM (inactive) | > 100 µM (inactive) | > 100 µM (inactive) | > 100 µM (inactive) | > 100 µM (inactive) | > 100 µM (inactive) | > 100 µM (inactive) | > 100 µM (inactive) | > 100 µM (inactive) | 59 µM (inactive) | > 100 µM (inactive) | > 100 µM (inactive) | > 100 µM (inactive) | > 100 µM (inactive) | > 100 µM (inactive) | > 100 µM (inactive) | > 100 µM (inactive) |  |  |
| NC1CC(=O)c2cscc21 (stereo unspecified) |  | 31 µM (inactive) | 16.3 µM (inactive) |  | 17.5 µM (inactive) | 17.6 µM (inactive) | > 100 µM (inactive) | 67.5 µM (inactive) | > 100 µM (inactive) | > 100 µM (inactive) | > 100 µM (inactive) | 91.4 µM (inactive) |  | > 100 µM (inactive) | 42.1 µM (inactive) | > 100 µM (inactive) | > 100 µM (inactive) | 18.4 µM (inactive) | 13.6 µM (inactive) |  |
| Cc1cccc(N/C(Sc2ccccc2)=C(/C(Cl)=C(Cl)Cl)[N+](=O)[O-])c1 | 16.5 µM (inactive) | 16.1 µM (inactive) | 27 µM (inactive) | 20.3 µM (inactive) | 10 µM (inactive) | 17.4 µM (inactive) | 20.5 µM (inactive) | 15.3 µM (inactive) | 35 µM (inactive) | 17.5 µM (inactive) | 17.1 µM (inactive) | 20.5 µM (inactive) | 16.8 µM (inactive) |  | 20.3 µM (inactive) | 20.4 µM (inactive) | 20.3 µM (inactive) | 23.1 µM (inactive) |  |  |
| CC(=O)OC1COC(n2c(N)c(C#N)c(C)c(C#N)c2=S)C(OC(C)=O)C1OC(C)=O (stereo unspecified) | > 100 µM (inactive) | > 100 µM (inactive) |  | 66.4 µM (inactive) | > 100 µM (inactive) | > 100 µM (inactive) | > 100 µM (inactive) |  | > 100 µM (inactive) |  | > 100 µM (inactive) |  | > 100 µM (inactive) | > 100 µM (inactive) | 58.9 µM (inactive) | > 100 µM (inactive) | > 100 µM (inactive) | > 100 µM (inactive) |  | > 100 µM (inactive) and 54.1 µM (inactive) |
| O=C(O/N=C1/CCC/C1=C\c1ccccc1)c1ccccc1 | > 100 µM (inactive) | 88.7 µM (inactive) | 48.8 µM (inactive) | > 100 µM (inactive) | > 100 µM (inactive) | > 100 µM (inactive) | > 100 µM (inactive) | > 100 µM (inactive) | > 10 µM (inactive) | > 100 µM (inactive) | > 100 µM (inactive) |  | > 100 µM (inactive) | > 100 µM (inactive) | 38.7 µM (inactive) |  | > 100 µM (inactive) | > 100 µM (inactive) | 37.8 µM (inactive) | 44.4 µM (inactive) |
| CN1CCN=C1c1nnn(-c2ccc([N+](=O)[O-])cc2)c1-c1ccccc1 | > 100 µM (inactive) | > 100 µM (inactive) | 24.7 µM (inactive) | > 100 µM (inactive) | > 100 µM (inactive) | 26.5 µM (inactive) | > 100 µM (inactive) | > 100 µM (inactive) | > 100 µM (inactive) | > 100 µM (inactive) | > 100 µM (inactive) |  | > 100 µM (inactive) | > 100 µM (inactive) | 33.7 µM (inactive) |  | > 100 µM (inactive) | > 100 µM (inactive) | 18.8 µM (inactive) | > 100 µM (inactive) |
| CC1(C)CC(=O)C2(CC(CSc3ccccc3)C(CS(=O)(=O)c3ccccc3)C2)C(=O)C1 (stereo unspecified) |  | > 100 µM (inactive) | > 100 µM (inactive) | > 100 µM (inactive) | > 100 µM (inactive) | > 100 µM (inactive) | > 100 µM (inactive) | > 100 µM (inactive) |  | > 100 µM (inactive) | > 100 µM (inactive) | > 100 µM (inactive) | > 100 µM (inactive) | > 100 µM (inactive) | > 100 µM (inactive) | > 100 µM (inactive) | > 100 µM (inactive) | > 100 µM (inactive) |  |  |

Source: ChEMBL document CHEMBL1201862, “PubChem BioAssay data set” (2004)
